In ChEMBL document CHEMBL1130763, “Nonpeptide glycoprotein IIb/IIIa inhibitors: substituted quinazolinediones and quinazolinones as potent fibrinogen receptor antagonists” (Bioorg Med Chem Lett, 1998) one finds IC50 data, which are given here for twelve molecules.

One may read the IC50 as the concentration that inhibits the measured activity by half. High values mean lower potency, low ones higher potency.

Structures are written as SMILES.

The species entered for the assay is Homo sapiens. The assay can be described thus: In vitro inhibition of platelet aggregation by measuring its effect on the ADP-stimulated aggregation of human platelets. In kind it is functional.
Consider `CCCCS(=O)(=O)NC(CC#Cc1ccc2nc(C)n(CCC3CCNCC3)c(=O)c2c1)C(=O)O` (configuration not stated), for which the IC50 came to 0.043 µM.
The molecule `CCCCS(=O)(=O)NC(CC#Cc1ccc2[nH]c(=O)n(CCC3CCNCC3)c(=O)c2c1)C(=O)O` (configuration not stated) yielded an IC50 of 0.037 µM.
In the case of `CCCCS(=O)(=O)NC(CCCc1ccc2c(c1)c(=O)n(CCC1CCNCC1)c(=O)n2C)C(=O)O` (configuration not stated) it was 0.14 µM.
Take `CCCCS(=O)(=O)NC(CCCc1ccc2c(c1)c(=O)n(CCC1CCNCC1)c(=O)n2Cc1ccccc1)C(=O)O` (configuration not stated): the IC50 was found to be 0.16 µM.
In the case of `CCCCS(=O)(=O)NC(CNC(=O)c1ccc2[nH]c(=O)n(CCC3CCNCC3)c(=O)c2c1)C(=O)O` (configuration not stated) it was 0.21 µM; in that of `CCCCS(=O)(=O)NC(CC#Cc1ccc2c(c1)c(=O)n(CCC1CCNCC1)c(=O)n2C)C(=O)O` (configuration not stated), 0.067 µM; in that of `CCCCS(=O)(=O)NC(CC#Cc1ccc2c(c1)c(=O)n(CCC1CCNCC1)c(=O)n2Cc1ccncc1)C(=O)O` (configuration not stated), 0.074 µM.
The molecule `CCCCS(=O)(=O)NC(CC#Cc1ccc2c(c1)c(=O)n(CCC1CCNCC1)c(=O)n2Cc1ccccc1)C(=O)O` (configuration not stated) registered an IC50 of 0.061 µM.
The figure for `CCCCS(=O)(=O)N[C@@H](Cc1ccc(OCCCCC2CCNCC2)cc1)C(=O)O` is 0.015 µM; for `CCCCS(=O)(=O)N[C@@H](CNC(=O)c1ccc2c(c1)C(=O)N(CCC1CCNCC1)C2)C(=O)O` it is 0.009 µM.
In the case of `CCCCS(=O)(=O)NC(CCCc1ccc2c(c1)c(=O)n(CCC1CCNCC1)c(=O)n2Cc1ccncc1)C(=O)O` (configuration not stated) it was 0.1 µM; in that of `CCCCS(=O)(=O)NC(CCCc1ccc2[nH]c(=O)n(CCC3CCNCC3)c(=O)c2c1)C(=O)O` (configuration not stated), 0.16 µM.
